Measured values published in PMC3976273, “Three Amino Acid Residues Bind Corn Odorants to McinOBP1 in the Polyembryonic Endoparasitoid of Macrocentrus cingulum Brischke” (PLoS ONE, 2014).
Where a chain is given by its changes, count along the chain named. Where “and” joins values, the source holds several entries; their conditions need not be identical. Identical values can stand only once. Entries after “also recorded” stand apart in the source; their conditions may differ. Like-named read-outs stand apart in the source and are kept apart here.

Assays:
[1] = biological target: T1, McinOBP1-wt (Macrocentrus cingulum, UniProt X2D9T4); assay: Competitive fluorescence binding assay, displacement of 1-NPN; settings: for binding to McinOBP1-wt (in words): displacement of 1-NPN
T1 sequence (X2D9T4 entry or part of it): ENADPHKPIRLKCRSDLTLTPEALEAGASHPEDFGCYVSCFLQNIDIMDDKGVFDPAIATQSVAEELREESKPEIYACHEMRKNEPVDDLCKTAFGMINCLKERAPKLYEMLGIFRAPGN
Protocol: (§1) Fluorescence binding assays were recorded on Shimadzu fluorescence spectrophotometer (Shimadzu, Japan) with a 1 cm light path quartz cuvette; both excitation and emission silts widths were 5 nm. The probe was excited at 337 nm and emission spectra were recorded between 350 and 500 nm. […] For determining the bound ligand from the intensity values of fluorescence emission assuming that the proteins were 100% active, with a stoichiometry of 1∶1 (protein:ligand) at saturation. The GraphPad Prism 5 (GraphPad Software, Inc.) was used to estimate the K1–NPN (KD of protein complex/1-NPN) values by nonlinear regression for a unique site of binding. Scatchard plots were used to linearize the curves.

[2] = biological target: T2, McinOBP1-m2 (Leu62 to proline) (Macrocentrus cingulum, UniProt X2D9T4, L62P); assay: as above
T2 sequence (X2D9T4 21-140 L62P): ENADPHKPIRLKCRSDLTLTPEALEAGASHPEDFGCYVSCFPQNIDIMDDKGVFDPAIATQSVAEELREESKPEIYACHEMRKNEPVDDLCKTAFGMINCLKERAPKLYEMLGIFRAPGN
Source text: (§2) The three mutants of McinOBP1, m1 (mutation of amino acid, valine to alanine at 58 position), m2 (mutation of amino acid, leucine to proline at 62 position) and m3 (mutation of amino acid, glutamic to alanine at 130 position), were developed using the kit of Quick-change lightning site-directed mutagenesis (Stratagene, La Jolla, CA, USA). The McinOBP1-wt/pGEM-T Easy construct was used as a template. The primers were designed manually and mutation sites are underlined as listed below.
as §1

[3] = biological target: T3, McinOBP1-m1 (Val58 to alanine) (Macrocentrus cingulum, UniProt X2D9T4, V58A); assay: as above
T3 sequence (X2D9T4 21-140 V58A): T2 sequence (X2D9T4 21-140 L62P) with V38A, P42L
Source text: as §2, §1

[4] = biological target: T4, McinOBP1-m3 (Glu130 to alanine) (Macrocentrus cingulum, UniProt X2D9T4, E130A); assay: as above
T4 sequence (X2D9T4 21-140 E130A): T2 sequence (X2D9T4 21-140 L62P) with P42L, E110A
Source text: as §2, §1

[5] = biological target: T2, McinOBP1-m2 (Leu62 to proline); assay: Fluorescence binding of the probe 1-NPN (direct titration); settings: 2 μM protein, pH 7.4
Source text: as §2, §1

[6] = biological target: T3, McinOBP1-m1 (Val58 to alanine); assay: as above; settings: 2 μM protein, pH 7.4
Source text: as §2, §1

[7] = biological target: T4, McinOBP1-m3 (Glu130 to alanine); assay: as above; settings: 2 μM protein, pH 7.4
Source text: as §2, §1

[8] = biological target: T1, McinOBP1-wt; assay: as above; settings: dissociation constant (KD) of 1-NPN, 2 μM protein, 50 mM Tris-HCl pH 7.4
Protocol: as §1

[9] = McinOBP1-wt, pH 7.4, calculated from IC50 and K1-NPN, read-out: KD (calculated dissociation constant)
[10] = read-out: IC50 (ligand concentration displacing 50% of the fluorescence of the McinOBP1/1-NPN complex), McinOBP1-wt, pH 7.4, 2 μM 1-NPN
[11] = McinOBP1-wt, pH 7.4, 2 μM 1-NPN, read-out: IC50 (given as dash)
[12] = McinOBP1-wt, pH 7.4, 2 μM 1-NPN

Compound `CC/C=C\CCO` [Cis-3-Hexen-1-ol] has an IC50 [1] of 4.61 µM, a Kd [1] of 4 µM and an IC50 [2] of 26.1 µM. For the same compound, the Kd [2] was 24.3 µM, the IC50 [3] was 23.6 µM and the Kd [3] was 22.1 µM. It also gave an IC50 [4] of 29.5 µM and a Kd ([4]; KD, McinOBP1-m3) of 25.6 µM.
For `O=Cc1ccccc1` [Benzaldehyde], the IC50 [1] was 17.9 µM and the Kd [1] was 15.6 µM.
`C=CC(=C)CC/C=C(\C)CCC=C(C)C` [β-Farnesene] showed a Kd [1, 9] of 24.8 µM and an IC50 [1, 10] of 28.5 µM.
`CC/C=C/CCOC(C)=O` [Trans-3-Hexen-1-ol-Acetate] gave a Kd [1, 9] of 20.7 µM and an IC50 [1, 10] of 23.9 µM.
With `CCCCCCCCCC=O` [Decanal] the “binding to McinOBP1-wt (in words)” value ([1]; McinOBP1-wt) was “did not bind”, the “binding to McinOBP1-wt (in words)” value ([1]; McinOBP1-wt, listed as decanal) was “no binding affinity” and the IC50 [1, 11] was > 50 µM.
`CC/C=C\CCOC(C)=O` [cis-3-hexenyl acetate] was tested, and the Kd [1, 9] was 10.3 ± 0.71 µM.
For `CCC(C)CCCC(C)C` (centres unmarked) [2,6 dimethyl octane], the “binding to McinOBP1-wt (in words)” value ([1]; McinOBP1-wt) was “no binding affinity”, the “binding to McinOBP1-wt (in words)” value ([1]; McinOBP1-wt, listed as 2, 6 dimethyl octane) was “did not bind” and the IC50 [1, 11] was > 50 µM.
For `C=C1CC/C=C(\C)CC[C@@H]2[C@@H]1CC2(C)C` [Trans-Caryophelle, β- Caryophelle], the Kd [1, 9] was 6.53 µM, the IC50 [1, 10] was 7.51 µM and the IC50 ([2]; McinOBP1-m2, read-out: IC50) was 45 µM. The Kd ([2]; McinOBP1-m2, read-out: KD) was 42 µM, the IC50 ([3]; McinOBP1-m1, read-out: IC50) was 70.7 µM and the Kd ([3]; McinOBP1-m1, read-out: KD) was 66.2 µM. The Kd ([4]; McinOBP1-m3, listed as trans-caryophelle, read-out: KD) was 41.4 ± 5.38 µM, the IC50 ([4]; McinOBP1-m3, read-out: IC50) was 47.8 µM and the Kd ([4]; McinOBP1-m3, read-out: KD) was 41.4 µM.
Compound `CCCCCCC=O` [Heptanal] has an IC50 [1, 12] of 35.5 µM and a Kd [1, 9] of 30.9 µM.
`C=C1CCC2CC1C2(C)C` (stereo not drawn) [β-Pinene] gave an IC50 [1] of 12.7 µM and a Kd [1] of 10.8 µM.
In the case of `CCCCCC/C=C/C=O` [Trans-2-Nonenal], the IC50 [1] is reported as 3.4 µM, the Kd [1] is reported as 2.96 µM and the IC50 [2] is reported as 50.6 µM. It also gave a Kd [2] of 47.2 µM, an IC50 [3] of 13.6 µM and a Kd [3] of 12.7 µM. The IC50 [4] was 76.7 µM and the Kd ([4]; KD, McinOBP1-m3) was 66.5 µM.
`c1ccc(Nc2cccc3ccccc23)cc1` [1-NPN, N-phenyl-1-naphthylamine] was tested, and the Kd [5] was 13.7 ± 0.71 µM, the Kd [6] was 14.6 ± 1.07 µM and the Kd [7] was 6.53 ± 0.5 µM. The Kd [8] was ~6.6 µM and 6.6 µM.
`CC(=O)/C=C/C1=C(C)CCCC1(C)C` [β-Ionone] gave an IC50 [1] of 10.3 µM and a Kd [1] of 8.97 µM.
`CCCCCCCCCCC=O` [Undecanal] was tested, and the “binding to McinOBP1-wt (in words)” value ([1]; McinOBP1-wt) was “did not bind; also recorded: no binding affinity” and the IC50 [1, 11] was > 50 µM.
`CCCCCc1ccco1` [2-Pentylfuran] was tested, and the IC50 [1, 12] was 19.1 µM and the Kd [1, 9] was 16.6 µM.
`CC(=O)/C=C/C1C(C)=CCCC1(C)C` (stereo not drawn) [α-Ionone] gave an IC50 [1] of 12.1 µM and a Kd [1] of 9.3 ± 0.38 µM.
In the case of `CC1=CCC2CC1C2(C)C` (stereo not drawn) [α-pinene], the IC50 [1] is reported as 17.8 µM and the Kd [1] is reported as 15.5 µM.
In the case of `C=CC(C)(O)CCC=C(C)C` (centres unmarked) [Linalool], the IC50 [1] is reported as 18.6 µM and the Kd [1] is reported as 16.2 µM.
In the case of Hexenal, the Kd [1, 9] is reported as 16.4 µM and the IC50 [1, 10] is reported as 18.9 µM.
Farnsene was tested, and the Kd [1, 9] was 8.93 µM and the IC50 [1, 10] was 10.3 µM.
`CCCCC/C=C/C=O` [Trans-2-Octenal] showed an IC50 [1, 12] of 15.7 µM and a Kd [1, 9] of 13.6 µM.
`CCCCCCCCC=O` [Nonanal] showed an IC50 [1, 12] of 19.6 µM and a Kd [1, 9] of 17 µM.
Compound `C=C(C)[C@H]1CC=C(C)CC1` [Limonene] has a Kd [1, 9] of 18.3 µM and an IC50 [1, 10] of 21.1 µM.
